Assay results taken from patent publication US20070232532A1, “Use of cyclosporin alkene analogues for preventing or treating viral-induced disorders” (priority 2006, published 2007).
In brackets after ≈: the same amount, converted by molar mass.

Tests used:
[1] = system: hepatitis C virus replication; settings: Paeshuyse et al. 2005; cited from earlier work
[2] = target: cyclophilin A (Homo sapiens, UniProt P62937); settings: cited from earlier work
[3] = system: concanavalin A-stimulated splenocytes; experiment: Concanavalin A-stimulated splenocyte assay; assay type: cell-based, BALB/c mice; settings: for IC50: immunosuppressive activity, ConA-stimulated murine splenocytes, [3H]thymidine incorporation, 7 point curves
Experimental: Concanavalin A-Stimulated Splenocyte Assay
Male BALB/c mice, at 5 to 7 weeks of age, were sacrificed by CO2 inhalation. Spleens were removed and dissociated by pushing through a nylon cell strainer. The splenocytes were washed in RPMI 1640/5% fetal calf serum (FCS) and pelleted at 400×g. Red blood cells were then lysed by resuspending the cell pellet in ACK lysis buffer (150 mM NH4Cl, 1 mM KHCO3, 0.1 mM EDTA, 3 mL per spleen) for 10 min at room temperature. After pelleting at 400×g, the cells were washed by resuspending in RPMI 1640/5% FCS and repelleting. The cell pellet was resuspended in RPMI 1640/5% FCS and again passed through a cell strainer to remove cell aggregates. The cells were then counted and adjusted to 2×10^6 cells/ml in RPMI 1640/10% FCS/50 μM 2-mercaptoethanol. Cell viability was assessed by Trypan blue staining. […] The cells were cultured in a 37° C. CO2 incubator for 2 days and then pulsed with 1 μCi of [^3H]thymidine for 6 hours. Cells were harvested onto filtermats with a TomTec 96 well plate harvester and lysed with H2O. The filtermat and scintillation fluid were sealed in a plastic sleeve. [^3H]thymidine incorporation was measured with a Wallac Trilux plate counter. Initial screens were done at a fixed value of 100 ng/ml test compound. IC50s were calculated from 7 point concentration-response curves using GraphPad software.

[4] = system: HIV-1; settings: literature report; cited from earlier work
[5] = system: calcineurin; settings: cited from earlier work
[6] = system: immunosuppressive activity; settings: Mlynar et al. 1997; cited from earlier work

Chain of cyclophilin A (P62937 whole entry): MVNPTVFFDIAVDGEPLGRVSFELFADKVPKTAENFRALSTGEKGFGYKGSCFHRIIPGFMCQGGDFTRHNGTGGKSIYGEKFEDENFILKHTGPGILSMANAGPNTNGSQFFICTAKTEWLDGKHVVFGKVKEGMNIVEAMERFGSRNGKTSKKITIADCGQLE

Compound	IC50 [3]	further results
C/C=C/C[C@@H](C)[C@@H](O)[C@H]1C(=O)N[C@@H](CC)C(=O)N(C)[C@H](C)C(=O)N(CC)[C@@H](C(C)C)C(=O)N[C@@H](C(C)C)C(=O)N(C)[C@@H](CC(C)C)C(=O)N[C@@H](C)C(=O)N[C@H](C)C(=O)N(C)[C@@H](CC(C)C)C(=O)N(C)[C@@H](CC(C)C)C(=O)N(C)[C@@H](C(C)C)C(=O)N1C [DEBIO-025]	–	inhibition of hepatitis C virus replication [1]: potent and selective inhibition of hepatitis C virus replication; binding affinity for cyclophilin A [2]: potent binding affinity
trans-cyclosporin diene-d2 [Example 69]	4 ng/mL	–
cyclosporin vinyl iodide [Example 6]	11 ng/mL	–
trans-deuterated cyclosporin vinyl iodide [Example 9]	7 ng/mL	potency in immunosuppression compared to cyclosporin A ([3]; FIG. 1, ConA-stimulated splenocyte assay): enhanced potency
C/C=C/C[C@@H](C)[C@@H](O)[C@H]1C(=O)N[C@@H](CC)C(=O)N(C)CC(=O)N(C)[C@@H]([C@@H](C)CC)C(=O)N[C@@H](C(C)C)C(=O)N(C)[C@@H](CC(C)C)C(=O)N[C@@H](C)C(=O)N[C@H](C)C(=O)N(C)[C@@H](CC(C)C)C(=O)N(C)[C@@H](CC(C)C)C(=O)N(C)[C@@H](C(C)C)C(=O)N1C [SDZ NIM 811]	–	anti-HIV-1 activity [4]: potent and selective anti-HIV-1 activity; inhibition of calcineurin [5]: does not inhibit calcineurin; immunosuppressive activity [6]: completely devoid of immunosuppressive activity
CC[C@@H]1NC(=O)[C@H]([C@H](O)[C@H](C)CC=CC(F)(F)F)N(C)C(=O)[C@H](C(C)C)N(C)C(=O)[C@H](CC(C)C)N(C)C(=O)[C@H](CC(C)C)N(C)C(=O)[C@@H](C)NC(=O)[C@H](C)NC(=O)[C@H](CC(C)C)N(C)C(=O)[C@H](C(C)C)NC(=O)[C@H](CC(C)C)N(C)C(=O)CN(C)C1=O [Example 31, cyclosporin fluoride]	38 ng/mL (≈ 30.2 nM)	–
C=C/C=C/C[C@@H](C)[C@@H](O)[C@H]1C(=O)N[C@@H](CC)C(=O)N(C)[C@H](CO)C(=O)N(C)[C@@H](CC(C)C)C(=O)N[C@@H](C(C)C)C(=O)N(C)[C@@H](CC(C)C)C(=O)N[C@@H](C)C(=O)N[C@H](C)C(=O)N(C)[C@@H](CC(C)C)C(=O)N(C)[C@@H](CC(C)C)C(=O)N(C)[C@@H](C(C)C)C(=O)N1C (relative stereo) [Example 67, trans-cyclosporin diene]	7 ng/mL (≈ 5.62 nM)	–
CC[C@@H]1NC(=O)[C@H]([C@H](O)[C@H](C)C/C=C/Br)N(C)C(=O)[C@H](C(C)C)N(C)C(=O)[C@H](CC(C)C)N(C)C(=O)[C@H](CC(C)C)N(C)C(=O)[C@@H](C)NC(=O)[C@H](C)NC(=O)[C@H](CC(C)C)N(C)C(=O)[C@H](C(C)C)NC(=O)[C@H](CC(C)C)N(C)C(=O)CN(C)C1=O (relative stereo) [Example 19, trans-cyclosporin vinyl bromide]	9 ng/mL	–
CC[C@@H]1NC(=O)[C@H]([C@H](O)[C@H](C)CC=CCF)N(C)C(=O)[C@H](C(C)C)N(C)C(=O)[C@H](CC(C)C)N(C)C(=O)[C@H](CC(C)C)N(C)C(=O)[C@@H](C)NC(=O)[C@H](C)NC(=O)[C@H](CC(C)C)N(C)C(=O)[C@H](C(C)C)NC(=O)[C@H](CC(C)C)N(C)C(=O)CN(C)C1=O [Example 34, cyclosporin allylic fluoride]	12 ng/mL (≈ 9.83 nM)	–
